Measurements taken from paper PMC11022895 (Drug Metabolism and Disposition, 2021).
Like-named read-outs stand apart in the source and are kept apart here.

Assays:
CYP2E1 [1] = biological target: T1, CYP2E1 (Homo sapiens, UniProt P05181); assay: IC50 shift study; type: in vitro ADME
CYP1A2 [2] = biological target: T2, CYP1A2 (Homo sapiens, UniProt P05177); assay: IC50 shift study; type: in vitro ADME
T2 sequence (P05177 1-516): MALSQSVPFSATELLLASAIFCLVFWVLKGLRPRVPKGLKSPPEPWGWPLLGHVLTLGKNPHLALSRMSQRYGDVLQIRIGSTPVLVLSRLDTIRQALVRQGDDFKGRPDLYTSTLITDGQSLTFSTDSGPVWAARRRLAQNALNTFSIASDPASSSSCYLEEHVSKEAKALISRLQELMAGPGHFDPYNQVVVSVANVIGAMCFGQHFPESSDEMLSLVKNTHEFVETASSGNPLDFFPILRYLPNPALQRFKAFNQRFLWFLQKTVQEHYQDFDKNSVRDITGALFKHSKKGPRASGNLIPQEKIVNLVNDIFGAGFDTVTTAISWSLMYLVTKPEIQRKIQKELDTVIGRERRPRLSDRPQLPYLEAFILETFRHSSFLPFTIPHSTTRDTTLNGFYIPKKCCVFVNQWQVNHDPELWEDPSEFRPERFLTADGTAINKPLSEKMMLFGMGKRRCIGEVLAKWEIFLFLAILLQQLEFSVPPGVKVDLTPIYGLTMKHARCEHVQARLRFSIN

[3] = Unbound fraction in incubation; type: in vitro ADME; conditions: human, human liver microsomes in buffer
CYP2B6 [4] = biological target: T3, CYP2B6 (Homo sapiens, UniProt P20813); assay: IC50 shift study; type: in vitro ADME
T3 sequence (P20813 1-491): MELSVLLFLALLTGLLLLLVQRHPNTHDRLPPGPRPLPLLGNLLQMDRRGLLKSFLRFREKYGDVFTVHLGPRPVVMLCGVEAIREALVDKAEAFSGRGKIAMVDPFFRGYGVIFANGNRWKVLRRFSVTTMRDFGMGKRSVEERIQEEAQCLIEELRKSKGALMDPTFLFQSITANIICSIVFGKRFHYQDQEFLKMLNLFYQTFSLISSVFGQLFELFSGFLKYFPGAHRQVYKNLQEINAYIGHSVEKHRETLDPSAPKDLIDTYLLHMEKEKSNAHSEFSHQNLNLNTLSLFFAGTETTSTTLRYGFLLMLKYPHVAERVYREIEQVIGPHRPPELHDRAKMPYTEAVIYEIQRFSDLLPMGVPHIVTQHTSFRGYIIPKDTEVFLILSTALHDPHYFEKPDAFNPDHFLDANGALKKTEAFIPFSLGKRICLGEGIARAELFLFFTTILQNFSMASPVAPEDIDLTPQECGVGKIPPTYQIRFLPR

CYP2E1 [5] = biological target: T1, CYP2E1; assay: Inhibition of rCYP2E1 in microsomes from CYP450-overexpressing HEK293 cells; type: in vitro ADME; conditions: for IC50 / Ki: probe chlorzoxazone; for decrease in activity: CYP2E1
CYP1A2 [6] = biological target: T2, CYP1A2; assay: Inhibition of CYP1A2 probe; type: in vitro ADME; conditions: for IC50: probe phenacetin; for Ki: probe phenacetin (CYP1A2)
CYP2B6 [7] = biological target: T3, CYP2B6; assay: Inhibition of rCYP2B6 in microsomes from CYP450-overexpressing HEK293 cells; type: in vitro ADME; conditions: for IC50 / Ki: probe bupropion; for inhibition of activity against efavirenz: probe efavirenz (Supplemental Table 2)
CYP2E1 [8] = biological target: T1, CYP2E1; assay: Inhibition of CYP2E1 probe; type: in vitro ADME; conditions: for IC50: probe chlorzoxazone; for Ki: probe chlorzoxazone (CYP2E1)
CYP2B6 [9] = biological target: T3, CYP2B6; assay: Inhibition of CYP2B6 probe; type: in vitro ADME; conditions: for IC50: probe bupropion; for Ki: probe bupropion (CYP2B6)
CYP2C9 = CYP2C9 (Homo sapiens, UniProt P11712); conditions: for inhibition of activity against S-warfarin: rCYP2C9 microsomes, probe S-warfarin (Supplemental Table 2)
CYP1A2 [10] = biological target: T2, CYP1A2; assay: Inhibition of rCYP1A2 in microsomes from CYP450-overexpressing HEK293 cells; type: in vitro ADME; conditions: probe phenacetin; for Ki: rCYP1A2 microsomes
CYP2D6 = CYP2D6 (Homo sapiens, UniProt P10635); conditions: rCYP2D6 microsomes; probe bufuralol (Supplemental Table 2)
[11] = plasma, ref Manini et al., 2015, Cox et al., 2019, cited from earlier work
[12] = Unbound fraction in incubation; type: in vitro ADME; conditions: human, HEK293 cell microsomes in buffer
[13] = IC50 (+), 30-min preincubation with NADPH
[14] = IC50 (−), 30-min preincubation without NADPH
[15] = IC50,u, rCYP2E1 microsomes, corrected for fu,inc
[16] = Ki,u, rCYP2E1 microsomes, corrected for fu,inc
[17] = IC50,u, HLM, corrected for fu,inc
[18] = Ki,u, HLM, corrected for fu,inc
[19] = IC50,u, rCYP2B6 microsomes, corrected for fu,inc
[20] = Ki,u, rCYP2B6 microsomes, corrected for fu,inc

T1 sequence (P05181 whole entry): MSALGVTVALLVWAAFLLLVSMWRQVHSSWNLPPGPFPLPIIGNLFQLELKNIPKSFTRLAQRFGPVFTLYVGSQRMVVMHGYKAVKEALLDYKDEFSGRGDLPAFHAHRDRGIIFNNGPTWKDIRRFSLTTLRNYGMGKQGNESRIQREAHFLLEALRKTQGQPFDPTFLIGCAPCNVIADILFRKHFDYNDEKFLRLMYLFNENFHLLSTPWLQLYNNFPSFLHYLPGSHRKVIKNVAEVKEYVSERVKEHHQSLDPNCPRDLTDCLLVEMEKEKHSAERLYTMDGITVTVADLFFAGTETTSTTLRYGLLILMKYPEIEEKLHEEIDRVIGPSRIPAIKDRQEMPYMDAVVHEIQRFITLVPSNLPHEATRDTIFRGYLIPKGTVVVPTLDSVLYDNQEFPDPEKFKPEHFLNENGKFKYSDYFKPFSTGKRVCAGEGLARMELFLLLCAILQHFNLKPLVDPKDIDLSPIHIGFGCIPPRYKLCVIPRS
Sequence of CYP2C9 (P11712 whole entry): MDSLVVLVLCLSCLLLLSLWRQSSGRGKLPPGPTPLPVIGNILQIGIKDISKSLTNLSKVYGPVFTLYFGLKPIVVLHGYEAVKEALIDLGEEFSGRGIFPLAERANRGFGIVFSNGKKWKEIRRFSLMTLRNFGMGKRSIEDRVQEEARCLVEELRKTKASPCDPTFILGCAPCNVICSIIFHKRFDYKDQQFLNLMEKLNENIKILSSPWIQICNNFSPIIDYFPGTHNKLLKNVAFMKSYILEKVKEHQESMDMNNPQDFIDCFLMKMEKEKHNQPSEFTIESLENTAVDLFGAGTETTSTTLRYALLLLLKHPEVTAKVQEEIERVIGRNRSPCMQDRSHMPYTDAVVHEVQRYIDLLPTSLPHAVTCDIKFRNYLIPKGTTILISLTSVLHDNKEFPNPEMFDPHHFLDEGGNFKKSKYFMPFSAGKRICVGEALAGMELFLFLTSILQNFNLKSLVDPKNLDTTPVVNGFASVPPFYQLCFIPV
Sequence of CYP2D6 (P10635 whole entry): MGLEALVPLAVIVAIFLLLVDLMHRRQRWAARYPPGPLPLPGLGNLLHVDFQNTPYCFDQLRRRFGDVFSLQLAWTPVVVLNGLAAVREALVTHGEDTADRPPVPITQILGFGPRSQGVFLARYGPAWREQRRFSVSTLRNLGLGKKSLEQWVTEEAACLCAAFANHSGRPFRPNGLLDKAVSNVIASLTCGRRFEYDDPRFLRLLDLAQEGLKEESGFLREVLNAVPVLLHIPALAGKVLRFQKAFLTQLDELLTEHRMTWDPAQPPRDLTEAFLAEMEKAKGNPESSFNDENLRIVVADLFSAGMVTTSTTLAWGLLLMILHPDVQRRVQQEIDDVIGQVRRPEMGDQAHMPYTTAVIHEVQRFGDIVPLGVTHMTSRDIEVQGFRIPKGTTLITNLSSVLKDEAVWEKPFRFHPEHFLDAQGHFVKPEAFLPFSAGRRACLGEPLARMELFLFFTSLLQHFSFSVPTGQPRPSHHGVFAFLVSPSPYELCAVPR

C=C(C)[C@@H]1CCC(C)=C[C@H]1c1c(O)cc(CCCCC)cc1O [CBD, cannabidiol]
IC50 (CYP2E1 [1]; [13]): 900 ± 400 nM
IC50 (CYP2E1 [1]; [14]): 1100 ± 660 nM
IC50 (CYP1A2 [2]; [13]): 1800 ± 310 nM
IC50 (CYP1A2 [2]; [14]): 2100 ± 250 nM
fraction unbound at 30 min, 50 µM [3]: 0.098 ± 0.023
IC50 (CYP2B6 [4]; [13]): 1300 ± 450 nM
IC50 (CYP2B6 [4]; [14]): 1900 ± 660 nM
IC50 (CYP2E1 [5]; IC50, rCYP2E1 microsomes): 590 ± 130 nM
IC50 (CYP2E1 [5]; [15]): 37 ± 8.1 nM
Ki (CYP2E1 [5]; Ki, rCYP2E1 microsomes): 340 ± 98 nM
Ki (CYP2E1 [5]; [16]): 21 ± 6.1 nM
IC50 (CYP1A2 [6]; IC50, HLM): 6.8 ± 1.5 µM
IC50 (CYP1A2 [6]; [17]): 0.67 ± 0.15 µM
Ki (CYP1A2 [6]; Ki, HLM): 2100 ± 1100 nM
Ki (CYP1A2 [6]; [18]): 210 ± 110 nM
IC50 (CYP2B6 [7]; IC50, rCYP2B6 microsomes): 2100 ± 610 nM
IC50 (CYP2B6 [7]; [19]): 130 ± 38 nM
Ki (CYP2B6 [7]; Ki, rCYP2B6 microsomes): 1100 ± 240 nM
Ki (CYP2B6 [7]; [20]): 68 ± 15 nM
inhibition of activity against efavirenz (CYP2B6 [7]; rCYP2B6 microsomes): Strong inhibition
IC50 (CYP2E1 [8]; IC50, HLM): 1400 ± 250 nM
IC50 (CYP2E1 [8]; [17]): 140 ± 25 nM
Ki (CYP2E1 [8]; Ki, HLM): 590 ± 230 nM
Ki (CYP2E1 [8]; [18]): 58 ± 23 nM
IC50 (CYP2B6 [9]; IC50, HLM): 2700 ± 2400 nM
IC50 (CYP2B6 [9]; [17]): 260 ± 240 nM
Ki (CYP2B6 [9]; Ki, HLM): 2200 ± 530 nM
Ki (CYP2B6 [9]; [18]): 220 ± 52 nM
inhibition of activity against S-warfarin (CYP2C9): Strong inhibition
IC50 (CYP1A2 [10]; IC50, rCYP1A2 microsomes): 2100 ± 930 nM
Ki (CYP1A2 [10]; Ki): 1900 ± 1200 nM
Ki (CYP1A2 [10]; Ki,u, corrected for fu,inc): 120 ± 74 nM
inhibition of activity against bufuralol (CYP2D6): Strong inhibition
Cmax ([11]; 20-mg inhaled dose of CBD): 10.3 nM
Cmax ([11]; oral dose of 800 mg of CBD): 703 nM

CCCCCc1cc(O)c2c(c1)OC(C)(C)c1ccc(C)cc1-2 [CBN, cannabinol]
IC50 (CYP2E1 [1]; [13]): 730 ± 210 nM
IC50 (CYP2E1 [1]; [14]): 870 ± 150 nM
fraction unbound at 30 min, 50 µM [3]: 0.052 ± 0.081
IC50 (CYP2B6 [4]; [13]): 2000 ± 700 nM
IC50 (CYP2B6 [4]; [14]): 2100 ± 830 nM
decrease in activity (CYP2E1 [5]; 1 µM cannabinoid): 77%
decrease in activity (CYP2E1 [5]; 10 µM cannabinoid): 80%
IC50 (CYP2E1 [5]; IC50, rCYP2E1 microsomes): 920 ± 100 nM
IC50 (CYP2E1 [5]; [15]): 280 ± 30 nM
Ki (CYP2E1 [5]; Ki, rCYP2E1 microsomes): 210 ± 97 nM
Ki (CYP2E1 [5]; [16]): 63 ± 29 nM
decrease in activity (CYP2B6 [7]; CYP2B6, 10 µM cannabinoid): 75%
IC50 (CYP2B6 [7]; IC50, rCYP2B6 microsomes): 2100 ± 870 nM
IC50 (CYP2B6 [7]; [19]): 630 ± 260 nM
Ki (CYP2B6 [7]; Ki, rCYP2B6 microsomes): 620 ± 190 nM
Ki (CYP2B6 [7]; [20]): 190 ± 57 nM
inhibition of activity against efavirenz (CYP2B6 [7]; rCYP2B6 microsomes): Strong inhibition
fraction unbound at 30 min, 50 µM [12]: 0.03 ± 0.052
IC50 (CYP2E1 [8]; IC50, HLM): 1100 ± 720 nM
IC50 (CYP2E1 [8]; [17]): 570 ± 370 nM
Ki (CYP2E1 [8]; Ki, HLM): 330 ± 91 nM
Ki (CYP2E1 [8]; [18]): 170 ± 47 nM
IC50 (CYP2B6 [9]; IC50, HLM): 1700 ± 590 nM
IC50 (CYP2B6 [9]; [17]): 880 ± 310 nM
Ki (CYP2B6 [9]; Ki, HLM): 1700 ± 420 nM
Ki (CYP2B6 [9]; [18]): 880 ± 220 nM
decrease in activity (CYP2C9; CYP2C9, 10 µM cannabinoid): 55%
inhibition of activity against S-warfarin (CYP2C9): Strong inhibition
inhibition of activity against bufuralol (CYP2D6): no inhibition was observed
